These results are taken from patent US20050169978A1, “Wet-micro grinding” (priority 2004, published 2005).

Each structure is given as a SMILES string.

The data set can be described thus: AmB content by high performance liquid chromatography during grinding. It is filed as physicochemical. Particulars: ball mill, 210 min overall grinding, HPLC.

Procedure: Samples were taken at a grinding time of 90 minutes, 150 minutes, and 210 minutes, and were designated as LDAB90, LDAB150, and LDAB210, respectively. All samples were stored at 2-8° C. before analyzed. The particle size ranges of the samples were measured using N4 Plus Particle Size Analyzer and the AmB content was measured using high performance liquid chromatography.

Regarding `C[C@@H]1[C@H](O)[C@@H](C)/C=C/C=C/C=C/C=C/C=C/C=C/C=C/[C@H](O[C@@H]2O[C@H](C)[C@@H](O)[C@H](N)[C@@H]2O)C[C@@H]2O[C@](O)(C[C@@H](O)C[C@@H](O)[C@H](O)CC[C@@H](O)C[C@@H](O)CC(=O)O[C@H]1C)C[C@H](O)[C@H]2C(=O)O` [AmB, amphotericin B], the “stability of AmB (AmB content) during grinding” value is listed as “remained stable during the whole period of the grinding process”.
